Data: the OligoGym collection
Oligonucleotides are written 5' to 3', each unit as a sugar letter and its base; * is a phosphorothioate linkage, no mark a phosphodiester; rarer units and linkages stand in square brackets, end groups in braces. Plain capitals give the bases only. d = 2'-deoxy (DNA); r = 2'-OH (RNA)

target: DENND5A; assay: reporter assay of Huesken 2005; details: siRNA
Also: test concentration or dose not given here.

Substance | normalised inhibition (eCFP-eYFP dual reporter)
sense rCrCrArGrCrCrUrUrUrGrUrGrArUrCrUrCrCrUdTdT / antisense rArGrGrArGrArUrCrArCrArArArGrGrCrUrGrGdCdA | 47.1%
sense rCrCrArGrCrUrCrArCrUrCrArUrGrCrCrUrCrCdTdT / antisense rGrGrArGrGrCrArUrGrArGrUrGrArGrCrUrGrGdCdA | 64.4%
sense rCrCrArUrGrCrCrUrUrUrArUrUrArUrCrArCrAdTdT / antisense rUrGrUrGrArUrArArUrArArArGrGrCrArUrGrGdAdA | 72.5%
sense rCrCrCrCrGrCrCrGrCrUrGrCrArGrCrArGrUrCdTdT / antisense rGrArCrUrGrCrUrGrCrArGrCrGrGrCrGrGrGrGdTdC | 61.8%
sense rCrCrUrCrUrArCrCrArCrArUrGrCrArCrArArUdTdT / antisense rArUrUrGrUrGrCrArUrGrUrGrGrUrArGrArGrGdGdT | 68.3%
sense rCrCrUrUrArUrGrGrUrCrCrCrArCrCrUrGrUrUdTdT / antisense rArArCrArGrGrUrGrGrGrArCrCrArUrArArGrGdCdT | 62.5%
sense rCrUrArUrCrArCrCrUrCrCrUrGrUrCrUrUrUrCdTdT / antisense rGrArArArGrArCrArGrGrArGrGrUrGrArUrArGdAdG | 63.1%
sense rCrUrCrArArGrArGrGrCrUrArArCrCrUrCrUrGdTdT / antisense rCrArGrArGrGrUrUrArGrCrCrUrCrUrUrGrArGdGdC | 52.3%
sense rCrUrCrArArGrArUrUrCrCrUrGrGrArGrArCrCdTdT / antisense rGrGrUrCrUrCrCrArGrGrArArUrCrUrUrGrArGdAdG | 64.6%
sense rCrUrCrCrUrGrUrGrArCrCrArArArCrUrGrCrAdTdT / antisense rUrGrCrArGrUrUrUrGrGrUrCrArCrArGrGrArGdTdG | 80.5%
sense rCrUrCrUrArCrGrUrCrUrCrUrArArGrUrGrCrAdTdT / antisense rUrGrCrArCrUrUrArGrArGrArCrGrUrArGrArGdAdG | 68.3%
sense rCrUrGrArGrGrArUrCrUrCrCrCrUrGrArUrUrCdTdT / antisense rGrArArUrCrArGrGrGrArGrArUrCrCrUrCrArGdGdG | 60.6%
sense rCrUrGrArUrCrGrUrArCrCrArArGrCrArArGrAdTdT / antisense rUrCrUrUrGrCrUrUrGrGrUrArCrGrArUrCrArGdAdA | 54.7%
sense rCrUrGrGrArUrUrGrCrCrCrUrGrCrUrGrGrCrUdTdT / antisense rArGrCrCrArGrCrArGrGrGrCrArArUrCrCrArGdTdG | 63.7%
sense rCrUrGrUrCrGrGrCrArUrUrArUrGrCrCrArGrUdTdT / antisense rArCrUrGrGrCrArUrArArUrGrCrCrGrArCrArGdCdT | 73%
sense rCrUrGrUrCrUrUrUrCrArArUrGrCrCrGrUrCrGdTdT / antisense rCrGrArCrGrGrCrArUrUrGrArArArGrArCrArGdGdA | 47.4%
sense rCrUrUrCrUrArArArGrCrCrArGrGrGrArUrGrGdTdT / antisense rCrCrArUrCrCrCrUrGrGrCrUrUrUrArGrArArGdCdC | 46.4%
sense rCrUrUrGrArGrArGrCrUrArCrArUrArUrArCrAdTdT / antisense rUrGrUrArUrArUrGrUrArGrCrUrCrUrCrArArGdGdG | 74.2%
sense rCrUrUrGrCrCrArCrArGrUrUrCrCrCrCrArArCdTdT / antisense rGrUrUrGrGrGrGrArArCrUrGrUrGrGrCrArArGdTdC | 50.6%
sense rCrUrUrUrCrArArUrGrCrCrGrUrCrGrArUrUrAdTdT / antisense rUrArArUrCrGrArCrGrGrCrArUrUrGrArArArGdAdC | 76.8%
sense rCrUrUrUrGrUrGrArUrCrUrCrCrUrGrGrArArAdTdT / antisense rUrUrUrCrCrArGrGrArGrArUrCrArCrArArArGdGdC | 65.8%
sense rGrArArUrGrGrGrArArCrArUrUrGrCrUrGrGrCdTdT / antisense rGrCrCrArGrCrArArUrGrUrUrCrCrCrArUrUrCdCdT | 45.3%
sense rGrArCrCrCrArGrArUrGrUrUrUrGrCrArUrCrUdTdT / antisense rArGrArUrGrCrArArArCrArUrCrUrGrGrGrUrCdTdC | 71.9%
sense rGrArCrUrGrArArGrGrArGrArArArArUrUrUrUdTdT / antisense rArArArArUrUrUrUrCrUrCrCrUrUrCrArGrUrCdGdT | 90.8%
sense rGrArGrCrUrGrCrUrCrArCrArUrCrCrCrArGrCdTdT / antisense rGrCrUrGrGrGrArUrGrUrGrArGrCrArGrCrUrCdCdC | 42.6%
sense rGrArGrGrArUrGrGrCrUrCrUrCrGrGrArCrArUdTdT / antisense rArUrGrUrCrCrGrArGrArGrCrCrArUrCrCrUrCdCdC | 55.9%

Substance | normalised inhibition (eCFP-eYFP dual reporter)
sense rGrArGrGrUrGrGrArUrGrArGrArGrGrCrCrArUdTdT / antisense rArUrGrGrCrCrUrCrUrCrArUrCrCrArCrCrUrCdAdG | 74.4%
sense rGrArUrCrCrUrArGrUrUrGrGrGrGrArGrCrUrGdTdT / antisense rCrArGrCrUrCrCrCrCrArArCrUrArGrGrArUrCdCdG | 66.6%
sense rGrArUrGrArGrArGrGrCrCrArUrGrCrCrGrGrAdTdT / antisense rUrCrCrGrGrCrArUrGrGrCrCrUrCrUrCrArUrCdCdA | 63%
sense rGrArUrGrGrUrGrArArGrArCrArCrUrCrCrUrGdTdT / antisense rCrArGrGrArGrUrGrUrCrUrUrCrArCrCrArUrCdCdT | 82.9%
sense rGrCrArArUrArArGrGrArUrCrUrCrArArArGrUdTdT / antisense rArCrUrUrUrGrArGrArUrCrCrUrUrArUrUrGrCdTdG | 66.2%
sense rGrCrArCrUrUrCrCrArUrArArGrCrCrUrGrArGdTdT / antisense rCrUrCrArGrGrCrUrUrArUrGrGrArArGrUrGrCdTdT | 78.7%
sense rGrCrCrCrGrGrArArCrUrUrCrUrGrCrCrGrArUdTdT / antisense rArUrCrGrGrCrArGrArArGrUrUrCrCrGrGrGrCdTdC | 70.9%
sense rGrCrUrGrArArGrArGrGrCrUrGrCrGrGrGrCrCdTdT / antisense rGrGrCrCrCrGrCrArGrCrCrUrCrUrUrCrArGrCdTdT | 37.4%
sense rGrGrArArArArGrUrUrGrGrArArGrUrGrCrGrUdTdT / antisense rArCrGrCrArCrUrUrCrCrArArCrUrUrUrUrCrCdAdG | 60.8%
sense rGrGrArCrUrGrGrArCrArCrGrGrArGrArCrCrGdTdT / antisense rCrGrGrUrCrUrCrCrGrUrGrUrCrCrArGrUrCrCdGdC | 60.4%
sense rGrGrArGrCrArArCrUrCrCrArCrCrArGrGrCrAdTdT / antisense rUrGrCrCrUrGrGrUrGrGrArGrUrUrGrCrUrCrCdAdG | 62.1%
sense rGrGrCrCrArGrCrCrArGrCrArArCrArArGrUrGdTdT / antisense rCrArCrUrUrGrUrUrGrCrUrGrGrCrUrGrGrCrCdCdA | 73.7%
sense rGrGrCrUrArArCrCrUrCrUrGrCrUrUrUrGrUrGdTdT / antisense rCrArCrArArArGrCrArGrArGrGrUrUrArGrCrCdTdC | 70.2%
sense rGrGrCrUrGrGrCrArUrUrCrArArGrArCrCrCrAdTdT / antisense rUrGrGrGrUrCrUrUrGrArArUrGrCrCrArGrCrCdCdT | 75.8%
sense rGrGrGrArArArUrCrArGrCrCrUrUrArUrGrGrUdTdT / antisense rArCrCrArUrArArGrGrCrUrGrArUrUrUrCrCrCdCdT | 61.1%
sense rGrGrGrArGrCrCrArGrArGrArUrCrArCrCrUrCdTdT / antisense rGrArGrGrUrGrArUrCrUrCrUrGrGrCrUrCrCrCdAdA | 49.7%
sense rGrGrGrCrArUrGrGrArUrGrArUrGrGrArArGrCdTdT / antisense rGrCrUrUrCrCrArUrCrArUrCrCrArUrGrCrCrCdTdT | 54.4%
sense rGrGrUrGrCrCrGrCrUrCrCrCrArCrCrUrCrCrUdTdT / antisense rArGrGrArGrGrUrGrGrGrArGrCrGrGrCrArCrCdTdC | 39%
sense rGrUrGrCrCrArGrArArCrUrUrGrGrGrGrArArGdTdT / antisense rCrUrUrCrCrCrCrArArGrUrUrCrUrGrGrCrArCdTdC | 41.9%
sense rGrUrUrUrArGrArUrArArUrGrArCrCrArGrArGdTdT / antisense rCrUrCrUrGrGrUrCrArUrUrArUrCrUrArArArCdGdC | 51.4%
sense rUrArUrGrArGrGrCrGrUrUrUrGrUrCrArUrCrCdTdT / antisense rGrGrArUrGrArCrArArArCrGrCrCrUrCrArUrAdAdT | 44.9%
sense rUrCrArCrUrGrCrCrArArCrCrCrArUrGrGrArUdTdT / antisense rArUrCrCrArUrGrGrGrUrUrGrGrCrArGrUrGrAdAdC | 57.8%
sense rUrCrArGrUrGrUrGrArUrGrArArGrArArGrArAdTdT / antisense rUrUrCrUrUrCrUrUrCrArUrCrArCrArCrUrGrAdAdC | 75.2%
sense rUrCrCrCrCrUrUrUrGrCrArUrUrCrCrUrArCrGdTdT / antisense rCrGrUrArGrGrArArUrGrCrArArArGrGrGrGrAdGdC | 44.7%
sense rUrCrUrCrCrUrGrCrArUrUrUrCrUrUrArGrArUdTdT / antisense rArUrCrUrArArGrArArArUrGrCrArGrGrArGrAdGdA | 51.3%
sense rUrCrUrGrArUrGrUrArCrUrUrUrCrCrArCrUrGdTdT / antisense rCrArGrUrGrGrArArArGrUrArCrArUrCrArGrAdCdT | 47.9%
